Test results as given in patent publication US20260283986A1, “NOVEL RAS INHIBITORS” (KHR Biotec GmbH, priority 2022, published 2026).
Where a name gives a salt, the structure may show the parent alone.

Columns and labels:
Type in all cases: cell-based
ASPC1 cells = assay: Soft agar colony formation assay, colonies stained with MTT; conditions: Homo sapiens; ASPC1, growth in soft agar, MTT absorbance at 570 nm, 3 independent experiments
Procedure: (§1) Metabolic activity was quantified using Cell Proliferation Kit I (Roche, Basel, Switzerland). Cells were seeded in 96-well cell culture plates, using 5000 cells per well for NCI-H358 cells. After treatment, 10 μl of MTT solution was added and incubated for 2 h in CO2 incubator. Then 100 μl of solubilization buffer was added to each well and incubated overnight in CO2 incubator. Cell viability, assessed by the amount of metabolized MTT, was quantified by measuring absorbance at 570 nm. MTT assay for the growth of different tumor cell lines with RAS mutations in soft agar Alexandrine dihydrochloride. NCI-H358, H358, H2122, ASPC-1, HCT-116, T24 and HT1080 cells were used for the soft agar colony formation assay. After the treatment with Alexandrine dihydrochloride, the colonies were stained with MTT and the value was quantified by measuring absorbance at 570 nm after solubilization. The results represent mean±SSEM from 3 independent experiments.

HCT-116 cells = assay: as above; conditions: Homo sapiens; HCT-116, growth in soft agar, MTT absorbance at 570 nm, 3 independent experiments
Procedure: as §1

HT1080 cells = assay: as above; conditions: Homo sapiens, HT-1080; HT1080, growth in soft agar, MTT absorbance at 570 nm, 3 independent experiments
Procedure: as §1

NCI-H2122 cells = assay: as above; conditions: Homo sapiens; NCI-H2122, growth in soft agar, MTT absorbance at 570 nm, 3 independent experiments
Procedure: as §1

NCI-H358 cells = assay: as above; conditions: Homo sapiens; NCI-H358, growth in soft agar, MTT absorbance at 570 nm, 3 independent experiments
Procedure: as §1

T24 cells = assay: as above; conditions: Homo sapiens, T-24; T24, growth in soft agar, MTT absorbance at 570 nm, 3 independent experiments
Procedure: as §1

BaF3 KRAS G12C cells = assay: MTT assay for cell viability in 96 well cell culture plate; conditions: Mus musculus, 48 h treatment
Procedure: (§2) FIGS. 4a) and 4b): MTT assay for cell viability in 96 well cell culture plate Cells were treated with Alexandrine dihydrochloride for 48 h and cell viability was evaluated by MTT assay. DMSO-treated cells were set as 1. The results shown are mean±SEM from 3 independent experiments.

[1] = test system: BaF3 KRAS G12C/Y96D cells; assay: as above; conditions: Mus musculus, 48 h treatment
Procedure: as §2

SNF96.2 cells = assay: RASOpathie-Model, MTT assay for cell viability in 96 well cell culture plate; conditions: SNF96.2, 48 h treatment
Procedure: as §2, with “FIG. 5: RASOpathie-Model of Alexandrine dihydrochloride;” for “FIGS. 4a) and 4b):”

HRAS G12V = HRAS G12V (Homo sapiens, UniProt P01112, G12V); assay: NanoBit assay for RAS activation (LgBiT-RAS / SmBiT-CRAF RBD); conditions: HRAS G12V with CRAF RBD, 2 h with inhibitor in serum free DMEM
Procedure: (§3) FIGS. 1a) and 1b): NanoBit assay for RAS activation (KRAS G12V, NRAS G12V, HRAS G12V) N-terminal LgBiT and C-terminal SmBiT construct was purchased from Promega and K, N and HRAS G12V (full length) was cloned with Xho I and Bgl II to LgBit and CRAF Ras binding domain (1-149) was cloned with EcoRI and Bgl II to SmBit. For transfections, 1 μg or 2 μg of (12 well/6 well) plasmids were transfected into cells with 0.5 mM of PEI reagent in 100 μl or 200 μl PBS. One day after transfection, cells were harvested and seeded into 96 well white plates, half area (Greiner). After an additional day the medium was changed to serum free DMEM and the cells were incubated for 2 h with inhibitor. NanoGlo assay was performed according to the manufacturer's instructions. The luminescence was measured using Tecan infinite (Tecan).

KRAS G12V = KRAS G12V (Homo sapiens, UniProt P01116, G12V); assay: as above; conditions: KRAS G12V with CRAF RBD, 2 h with inhibitor in serum free DMEM
Procedure: as §3

NRAS G12V = NRAS G12V (Homo sapiens, UniProt P01111, G12V); assay: as above; conditions: NRAS G12V with CRAF RBD, 2 h with inhibitor in serum free DMEM
Procedure: as §3

[2] = test system: KRAS mutants (G12V, G12C, G12D, G12C/Y96D); assay: NanoBiT assay for the RAS GTP-loading in HeLa cells (LgBit-KRAS mutants / SmBit-CRAF-RBD); conditions: 2 h in serum-free DMEM, normalized to DMSO
Procedure: FIG. 3: NanoBit assay for RAS activation (G12V, G12C, G12D, G12C/Y96D,)
NanoBiT assay for the RAS GTP-loading was performed in HeLa cells transfected with LgBit-KRAS mutants and SmBit-CRAF-RBD. Cells were treated with Alexandrine dihydrochloride for 2 h in serum-free DMEM. After incubation, the substrate for NanoLuc was added, and the luminescence was measured in a multiplate reader. Data were normalized to cells transfected with the indicated mutant and exposed to DMSO for 2 h. DMSO-treated cells were set as 1. The bars represent mean±SEM from 3 independent experiments.

NRAS G12V, sequence (P01111 1-186 G12V): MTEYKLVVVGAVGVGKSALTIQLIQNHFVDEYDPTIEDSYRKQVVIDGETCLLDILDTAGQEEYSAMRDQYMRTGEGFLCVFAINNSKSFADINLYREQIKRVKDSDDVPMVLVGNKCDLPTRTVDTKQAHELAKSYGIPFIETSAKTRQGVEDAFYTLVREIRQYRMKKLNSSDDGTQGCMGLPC
KRAS G12V, sequence (P01116 1-186 G12V): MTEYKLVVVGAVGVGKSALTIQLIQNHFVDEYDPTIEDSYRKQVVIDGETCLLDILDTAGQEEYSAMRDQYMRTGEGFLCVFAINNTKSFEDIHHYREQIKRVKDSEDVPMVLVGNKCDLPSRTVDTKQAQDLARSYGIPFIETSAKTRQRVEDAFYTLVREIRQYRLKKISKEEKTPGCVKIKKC
HRAS G12V, sequence (P01112 1-186 G12V): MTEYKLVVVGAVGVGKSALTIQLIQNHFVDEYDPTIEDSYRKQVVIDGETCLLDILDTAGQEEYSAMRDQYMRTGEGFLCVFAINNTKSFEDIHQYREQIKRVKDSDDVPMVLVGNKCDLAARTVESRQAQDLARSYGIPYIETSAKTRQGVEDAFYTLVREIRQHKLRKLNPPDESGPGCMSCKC

CCCCC(CC)CNC(=N)NC(=N)NCCCCCCNC(=N)NC(=N)NCC(CC)CCCC (stereo not shown) [Alexandrine dihydrochloride, 1,1′-Hexamethylenebis[5-(2-ethylhex-1-yl)]biguanide dihydrochloride]
IC50 (ASPC1 cells): 1760 nM | IC50 (HCT-116 cells): 1910 nM | IC50 (HT1080 cells): 310 nM | IC50 (NCI-H2122 cells): 1610 nM | IC50 (NCI-H358 cells): 1280 nM | IC50 (T24 cells): 1700 nM | IC50 (BaF3 KRAS G12C cells): 1170 nM | IC50 [1]: 1540 nM | IC50 (SNF96.2 cells): 350 nM | inhibition of H-RAS activation (NanoBit luminescence) (HRAS G12V): inhibits | inhibition of K-RAS activation (NanoBit luminescence) (KRAS G12V): inhibits | inhibition of N-RAS activation (NanoBit luminescence) (NRAS G12V): inhibits | inhibition of RAS activation of KRAS mutants (NanoBiT luminescence) [2]: inhibits different RAS-isoforms
